Measured values published in article PMC8848508 (ACS Central Science, 2022).
Like-named read-outs stand apart in the source and are kept apart here.

How the values were obtained:
SARS-CoV-2 [1] = settings: read-out: antiviral EC50; genomic RNA quantification; cited from earlier work
SARS-CoV-2 M^Pro = SARS-CoV-2 M^Pro (Severe acute respiratory syndrome coronavirus 2, UniProt P0DTD1); format: biochemical; settings: at 16 μM inhibitor
SARS-CoV-2 [2] = settings: read-out: antiviral EC50, primary CPE assay, cited from earlier work
SARS-CoV-2 [3] = settings: read-out: antiviral EC50; cited from earlier work

SMILES: CCCCCCNC(=O)n1cc(F)c(=O)[nH]c1=O [carmofur]
- EC50 (SARS-CoV-2 [1]): > 100000 nM

SMILES: CCN(CC)CCCC(C)Nc1ccnc2cc(Cl)ccc12 (centres unmarked) [chloroquine]
- M^Pro retained activity (SARS-CoV-2 M^Pro): 84%

SMILES: CC(C)COCC(CN(Cc1ccccc1)c1ccccc1)N1CCCC1 (centres unmarked) [bepridil]
- EC50 (SARS-CoV-2 [2]; ACE2+ A549 cells): 460 nM

SMILES: CC(C)(C)NC(=O)N[C@H](C(=O)N1C[C@H]2[C@@H]([C@H]1C(=O)NC(CC1CCC1)C(=O)C(N)=O)C2(C)C)C(C)(C)C (some centres unmarked) [boceprevir]
- EC50 (SARS-CoV-2 [2]): 1310 ± 580 nM
- EC50 (SARS-CoV-2 [3]): 15600 nM
